Experiments:
[1] = test system: Adults with Type 2 Diabetes Mellitus; conditions: starting HbA1c below 8; 300 mg/day; as long as 52 weeks; cited from earlier work
[2] = test system: subject with T2D; experiment: Three month treatment with postprandial exercise: fasting glucose, HbA1c, triglycerides, BMI; format: in vivo, human; conditions: postprandial exercise with orlistat; from over 500 mg/dL
Protocol: Over three months to speed up the slow progress the subject with T2D with fasting glucose level of about 140 mg/dL and HbA1c of about 7.5 or above was treated with Orlistat at the lowest marketed dose of 60 mg and the lowest dose for either Canafliglozin (100 mg) and Dapagliflozin (5 mg). Postprandial exercise with orlistat reduced triglycerides to about 260 mg/dL from over 500 mg/dL.
An invasive glucose testing meter was used to simulate a post-prandial invasive/noninvasive glucose monitoring device. Specifically a combination of orlistat and a SGLT2 inhibitor (Canafliglozin and Dapagliflozin) was administered. Treatment with orlistat (60 mg) daily alone with […]
The fasting glucose levels changed and continued to decrease overall over the three months.
The fasting glucose levels were obtained using a portable glucose meter while the fasting glucose (again to check the meter and strip accuracy) and HbA1c were determined using laboratory tests that included a lipid panel. […] Also the subject could not be fully compliant—many meals were not followed by exercise. The treatment with Exercise Sensitizer and SGLT2 inhibitor was adhered to strictly. Still, the triglyceride levels dropped to 260 and eventually to about 220 from about 500. […]

[3] = test system: subject with T2D; experiment: Blood glucose response to exercise in a fasting state; format: in vivo, human; conditions: 60 mg Orlistat; over fifteen to thirty minutes
Protocol: A subject with T2D with starting fasting glucose level of about 140 mg/dL to 160 mg/dL and HbA1c of about 8 was treated with Orlistat. In one aspect, the subject with T2D was treated with 60 mg Orlistat and exercised in a fasting state. […] Although not intending to be bound by theory, one factor may be the natural inhibition of gluconeogenesis in the postprandial state. In addition, the release of fatty acids or lack thereof may affect the release of cholecystokinin and other downstream effects and thus account for the synergy between the postprandial state and the Exercise Sensitizers.

[4] = test system: subject with T2D; experiment: Blood glucose response to postprandial exercise; format: in vivo, human
Protocol: The patient of Example 1 was encouraged to track glucose levels, including postprandial glucose levels, to observe the effect of postprandial exercise and lifestyle changes. To control triglyceridemia they also started over the counter orlistat at a 60 mg dose daily with a daily multi-vitamin supplement and an additional vitamin D supplement. They had discontinued metformin and statins. Instead close monitoring of blood glucose levels was undertaken.
In Example 2, when using orlistat at 60 mg daily, the patient noticed that blood glucose levels reduced to a level of about 90 to 100 mg/dL, which is in the normal range, after a modest meal with a brisk walk after eating. The blood glucose levels stayed below 100 mg/dL for several hours. […] Effectively exercise is contraindicated in standard of care treatments for T2D due to the use of medications that can drive the glucose levels too low.
A subject with T2D with fasting glucose levels of over 140 mg/dL was treated with 60 mg Orlistat. The subject undertook exercise in a postprandial state within about an hour and a half after eating. […]
The subject with T2D was treated with Pioglitazone 15 mg and postprandial exercise but no Exercise Sensitizer or SGLT2 inhibitor. Over twenty minutes of postprandial exercise glucose readings were taken every 5 minutes for fifteen minutes. […]
The subject with T2D was treated with Exercise Sensitizer Colestipol (1 gm dose) and postprandial exercise. Over twenty minutes of postprandial exercise glucose readings were taken every 5 minutes for fifteen minutes. […]
The subject with T2D was treated with Exercise Sensitizer Colestipol (1 gm) before each meal and with 60 mg. of Exercise Sensitizer Orlistat and 100 mg. of Canagliflozin daily. […] Over twenty minutes of postprandial exercise on an elliptical trainer at a resistance setting of 6, glucose readings dropped to about 81 to 84 mg/dL. […]

Cc1ccc([C@@H]2O[C@H](CO)[C@@H](O)[C@H](O)[C@H]2O)cc1Cc1ccc(-c2ccc(F)cc2)s1 [Canagliflozin, (2S,3R,4R,5S,6R)-2-{3-[5-[4-Fluoro-phenyl)-thiophen-2-ylmethyl]-4-methyl-phenyl}-6-hydroxymethyl-tetrahydro-pyran-3,4,5-triol]
improvement in HbA1c [1]: less than 0.8

CCCCCCCCCCC[C@@H](C[C@@H]1OC(=O)[C@H]1CCCCCC)OC(=O)[C@H](CC(C)C)NC=O [Orlistat, (S)—((S)-1-((2S,3S)-3-Hexyl-4-oxooxetan-2-yl)tridecan-2-yl) 2-formamido-4-methylpentanoate]
triglycerides [2]: about 260 mg/dL | blood/plasma glucose level on exercise in a fasting state [3]: increased or remained steady in the high range | blood/plasma glucose level after postprandial exercise ([4]; 60 mg Orlistat, exercise within about an hour and a half after eating, fasting glucose over 140 mg/dL): dropped sharply to the normal range | blood glucose level for several hours after the postprandial walk ([4]; orlistat 60 mg daily, several hours): below 100 mg/dL

CCc1ccc(CCOc2ccc(CC3SC(=O)NC3=O)cc2)nc1 (stereo not drawn) [Pioglitazone]
blood glucose level during postprandial exercise ([4]; Pioglitazone 15 mg, at about ten minutes, then leveled off, from about 175 mg/dL): about 103 mg/dL

From US10743813B2, “Diabetes control using postprandial feedback” (priority 2014, dated 2020)
